Bridge positions count the residues as written; N and C are the ends. Square brackets hold non-standard residues; d marks the D form. Peptide text beside a SMILES is read from it. * marks the point of attachment. DOTA = O=C(O)CN1CCN(CC(=O)O)CCN(CC(=O)*)CCN(CC(=O)O)CC1; dDab = NCC[C@@H](N)C(=O)O; GABA = NCCCC(=O)O
Key:
Test in all cases: Receptor autoradiography displacement of 125I-[Leu8,D-Trp22,Tyr25]-somatostatin 28 on membrane pellet sections
Type in all cases: binding
human sst5 = molecular target: T1, human sst5 (Homo sapiens, UniProt P35346); conditions: CHO-K1 cells stably expressing human sst5; sectioned membrane pellets; read-out: IC50 hsst5
T1 construct: expressed in transfected cells; host or cells: CHO-K1
Experimental: (§1) Cell culture CHO-K1 cells stably expressing human sst1 and sst5 were kindly provided by Drs. T. Reisine and G. Singh (University of Pennsylvania, Philadelphia, Pa.) and CCL39 cells stably expressing human sst2, sst3, and sst4 by Dr. D. Hoyer (Novartis Pharma, Basel, Switzerland).
(§2) CHO-K1 cells were grown in Ham's F-12 medium and CCL39 cells in Dulbecco's modified Eagle's medium/Ham's F-12 (1:1) mix, supplemented with 10% fetal bovine serum, 100 μg/mL penicillin and 100 μg/mL streptomycin, in humidified air containing 5% CO2 at 37° C. Geneticin (G418-sulfate; Gibco, USA) was used where necessary to maintain selection pressure at a final concentration of 400 μg/mL for sst2 to sst4—and 285 μg/mL for sst5—expressing cells as described previously (Rens-Domiano S. & Reisine T., Biochemical and functional properties of somatostatin receptors, J. Neurochem., 58:1987-1996 (1992); O'Caroll A. et al., Characterization of cloned human somatostatin receptor SSTR5, Molec. Pharmacol., 46:291-298 (1994); Siehler S. et al., [^125I]Tyr^10-cortistatin14 labels all five somatostatin receptors, Naunyn-Schmiedeberg's Arch. Pharmacol., 357:483-489 (1998).).
(§3) Cells were washed twice with and scraped into ice-cold 0.05 M Tris-CHl (pH 7.4), collected by centrifugation, and homogenized using a rotor/stator slash system (POLYTRON®, Kinematica Inc., Littau, Switzerland) in the same buffer. After centrifugation at 120 g for 5 min at 4° C., the supernatant was collected and centrifuged again at 48,000 g for 30 min at 4° C. The resulting pellet was re-suspended in ice-cold Tris buffer, transferred into a microfuge tube, and centrifuged at 20,000 g for 15 min at 4° C. After withdrawal of the supernatant, the membrane pellet was stored at −80° C.
(§4) Receptor autoradiography was performed on 20 μm thick cryostat (Leitz 1720, Rockleigh, N.J.) sections of the membrane pellets, mounted on microscope slides, and then stored at −20° C.
(§5) IC50 values were calculated after quantification of the data using a computer-assisted image processing system as described previously (Reubi, J. C. et al., Detection of somatostatin receptors in surgical and percutaneous needle biopsy samples of carcinoids and islet cell carcinomas, Cancer Res. 50: 5969-5977 (1990).). Tissue standards (Autoradiographic [^125I] microscales, Amersham) that contain known amounts of isotope, cross-calibrated to tissue-equivalent ligand concentrations were used for quantification (Reubi, J. C., In vitro identification of vasoactive intestinal peptide receptors in human tumors: Implications for tumor imaging, J. Nucl. Med. 36: 1846-1853 (1995).).

human sst4 = molecular target: T2, human sst4 (Homo sapiens, UniProt P31391); conditions: CCL39 cells stably expressing human sst4; sectioned membrane pellets; read-out: IC50 hsst4
T2 construct: expressed in transfected cells; host or cells: CCL39
Experimental: as §1, §2, §3, §4, §5

human sst3 = molecular target: T3, human sst3 (Homo sapiens, UniProt P32745); conditions: CCL39 cells stably expressing human sst3; sectioned membrane pellets; read-out: IC50 hsst3
T3 construct: expressed in transfected cells; host or cells: CCL39
Experimental: as §1, §2, §3, §4, §5

human sst1 = molecular target: T4, human sst1 (Homo sapiens, UniProt P30872); conditions: CHO-K1 cells stably expressing human sst1; sectioned membrane pellets; read-out: IC50 hsst1
T4 construct: expressed in transfected cells; host or cells: CHO-K1
Experimental: as §1, §2, §3, §4, §5

human sst2 = molecular target: T5, human sst2 (Homo sapiens, UniProt P30874); conditions: CCL39 cells stably expressing human sst2; sectioned membrane pellets; read-out: IC50 hsst2
T5 construct: expressed in transfected cells; host or cells: CCL39
Experimental: as §1, §2, §3, §4, §5

T3 sequence (P32745 whole entry): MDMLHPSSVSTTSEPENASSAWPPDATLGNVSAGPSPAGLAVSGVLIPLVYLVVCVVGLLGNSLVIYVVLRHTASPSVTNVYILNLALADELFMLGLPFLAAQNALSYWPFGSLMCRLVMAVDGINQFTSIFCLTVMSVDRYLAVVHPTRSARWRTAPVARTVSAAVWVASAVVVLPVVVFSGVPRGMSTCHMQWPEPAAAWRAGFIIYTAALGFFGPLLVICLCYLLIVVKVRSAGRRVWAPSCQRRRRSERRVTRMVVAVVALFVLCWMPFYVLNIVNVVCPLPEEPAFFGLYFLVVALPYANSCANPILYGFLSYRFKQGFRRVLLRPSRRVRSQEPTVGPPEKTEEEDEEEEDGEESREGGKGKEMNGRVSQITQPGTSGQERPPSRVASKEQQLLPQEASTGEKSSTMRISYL
T2 sequence (P31391 whole entry): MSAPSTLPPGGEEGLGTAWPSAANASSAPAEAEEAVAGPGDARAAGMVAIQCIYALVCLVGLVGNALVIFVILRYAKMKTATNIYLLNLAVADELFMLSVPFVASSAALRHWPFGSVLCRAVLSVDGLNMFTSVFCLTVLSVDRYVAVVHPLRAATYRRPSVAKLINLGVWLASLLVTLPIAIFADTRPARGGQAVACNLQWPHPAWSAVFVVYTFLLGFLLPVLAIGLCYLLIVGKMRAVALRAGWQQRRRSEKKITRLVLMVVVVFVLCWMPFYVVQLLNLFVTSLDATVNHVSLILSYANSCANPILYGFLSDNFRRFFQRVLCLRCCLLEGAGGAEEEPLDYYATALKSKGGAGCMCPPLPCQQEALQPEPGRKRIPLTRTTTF
T1 sequence (P35346 whole entry): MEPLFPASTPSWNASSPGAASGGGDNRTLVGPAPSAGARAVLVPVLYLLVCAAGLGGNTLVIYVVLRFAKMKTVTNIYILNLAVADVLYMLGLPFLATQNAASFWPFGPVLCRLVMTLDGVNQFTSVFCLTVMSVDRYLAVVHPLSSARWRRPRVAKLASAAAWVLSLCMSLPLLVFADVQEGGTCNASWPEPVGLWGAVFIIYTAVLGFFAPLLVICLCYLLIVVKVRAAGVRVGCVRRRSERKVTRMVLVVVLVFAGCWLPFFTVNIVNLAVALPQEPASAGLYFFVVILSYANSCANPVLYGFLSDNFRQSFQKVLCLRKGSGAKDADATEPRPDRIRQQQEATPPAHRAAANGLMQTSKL
T4 sequence (P30872 whole entry): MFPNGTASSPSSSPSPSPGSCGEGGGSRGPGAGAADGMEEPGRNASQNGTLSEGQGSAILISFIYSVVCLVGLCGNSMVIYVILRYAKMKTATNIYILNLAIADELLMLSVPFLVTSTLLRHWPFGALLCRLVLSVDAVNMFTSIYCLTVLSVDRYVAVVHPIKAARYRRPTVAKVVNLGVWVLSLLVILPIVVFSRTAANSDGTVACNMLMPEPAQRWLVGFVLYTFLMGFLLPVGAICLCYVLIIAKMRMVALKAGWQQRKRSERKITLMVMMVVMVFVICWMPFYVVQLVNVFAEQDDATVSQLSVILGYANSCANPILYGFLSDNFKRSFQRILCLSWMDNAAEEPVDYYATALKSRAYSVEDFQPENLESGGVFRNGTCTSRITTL
T5 sequence (P30874 whole entry): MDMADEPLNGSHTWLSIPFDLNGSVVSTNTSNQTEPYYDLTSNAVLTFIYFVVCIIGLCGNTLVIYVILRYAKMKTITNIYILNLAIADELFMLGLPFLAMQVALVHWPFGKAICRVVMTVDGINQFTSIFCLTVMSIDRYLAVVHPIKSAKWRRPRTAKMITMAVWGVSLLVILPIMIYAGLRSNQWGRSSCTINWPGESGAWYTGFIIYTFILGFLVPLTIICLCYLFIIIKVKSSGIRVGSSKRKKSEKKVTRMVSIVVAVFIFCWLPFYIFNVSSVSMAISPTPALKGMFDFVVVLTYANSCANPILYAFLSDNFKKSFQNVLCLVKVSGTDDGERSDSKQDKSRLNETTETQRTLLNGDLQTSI

SMILES | IC50 (human sst5) | IC50 (human sst4) | IC50 (human sst3) | IC50 (human sst1) | IC50 (human sst2)
C[C@@H](O)[C@@H]1NC(=O)[C@H](CCCCN)NC(=O)[C@@H](Cc2c[nH]c3ccccc23)NC(=O)[C@H](Cc2ccc(O)cc2)NC(=O)[C@H](Cc2ccccc2)NC(=O)[C@H](CCCNC(=N)N)NC(=O)CCCNC(=O)[C@H](Cc2ccccc2)NC1=O [A with X4 is Tyr and X1 is GABA] (cyclo(F[GABA]RFY[dW]KT); ring closure inferred) | 0.57 nM | 0.68 nM | 1.7 nM | 10.5 nM | 
C[C@@H](O)[C@@H]1NC(=O)[C@H](CCCCN)NC(=O)[C@@H](Cc2c[nH]c3ccccc23)NC(=O)[C@H](Cc2ccc(O)cc2)NC(=O)[C@H](Cc2ccccc2)NC(=O)[C@H](CCCNC(=N)N)NC(=O)[C@H](N)CCNC(=O)[C@H](Cc2ccccc2)NC1=O [A with X4 is Tyr] (H-[dDab]RFY[dW]KTF; lactam 1-C) | 0.8 nM | 1 nM | 2 nM | 24.5 nM | 2.9 nM
C[C@@H](O)[C@@H]1NC(=O)[C@H](CCCCN)NC(=O)[C@@H](Cc2c[nH]c3ccccc23)NC(=O)[C@H](Cc2ccccc2)NC(=O)[C@H](Cc2ccccc2)NC(=O)[C@H](CCCNC(=N)N)NC(=O)[C@H](NC(=O)CN2CCN(CC(=O)O)CCN(CC(=O)O)CCN(CC(=O)O)CC2)CCNC(=O)[C@H](Cc2ccccc2)NC1=O [A, Z = DOTA] ({DOTA}-[dDab]RFF[dW]KTF; lactam 1-C) | 0.8 nM | 0.9 nM | 1.6 nM | 7.6 nM | 3 nM
C[C@@H](O)[C@@H]1NC(=O)[C@H](CCCCN)NC(=O)[C@@H](Cc2c[nH]c3ccccc23)NC(=O)[C@H](Cc2ccccc2)NC(=O)[C@H](Cc2ccccc2)NC(=O)[C@H](CC(N)=O)NC(=O)CCCNC(=O)[C@H](Cc2ccccc2)NC1=O [minisomatostatin, reference compound] (cyclo(FF[dW]KTF[GABA]N)) | 6.8 nM | 15.3 nM | 3.2 nM | 172 nM | 

Source: patent US7541018B2, “Treatment process using somatostatin analogues” (University of Bern, priority 2001, dated 2009)
